From patent US20040028714A1, “Composition having insect repellent characteristics” (priority 2000, published 2004)
Where “and” joins values, the source holds several entries; their conditions need not be identical. Identical values can stand only once.

Experiments:
[1] = tested on: Casemaking Clothes Moths (Tinea pellionella); experiment: Adult clothes moth repellency on treated woolen cloth (Example 5); format: in vivo; settings: fabric soaked in 20 g/L in ethanol, 2 days after moth introduction; for Moths Present, Treated Section, Total (%) / Moths Present, Untreated Section, Total (%): share of moths found in the two boxes; for The Number of Moths Present, Treated Section / The Number of Moths Present, Untreated Section: single replicates (n = 50); for The Number of Moths Present, Treated Section, Total / The Number of Moths Present, Untreated Section, Total: total of 4 replicates
Procedure: The effectiveness of compound 2 (example 1) to reduce the presence of cloth moths on woolen cloth was determined and was directly compared to the repellency of the well known moth repellents Citronellol and Farnesol.
The study was conducted in an air conditioned laboratory at a temperature of 22°±2° C. under a normal day/night cycle, using Casemaking Clothes Moths (Tinea pellionella) of mixed sex and age. The study is conducted over a 5 days period and the repellent effectiveness was assessed as follows:
Adults—2 days after insect introduction
A 10 cm×10 cm square of black woolen fabric free of bactericide) was soaked in a solution of the candidate repellent in ethanol at 20 g/L, squeezed and allowed to dry. The woollen square was placed in a small box (5 cm×10 cm×10 cm) which was open at one end to allow entry of adult clothes moth.
A similar square of fabric treated with ethanol (control) was placed in another box of the same size.
These two boxes were placed in an aquarium and 50 mixed sex adult moths were added. These were provided with food and water and left for 5 days.
At the end of 2 days the number of adult moths in each box was counted.
The above was repeated 3 times to provide 4 replicates.

[2] = tested on: Black Ants (Ochetellus sp); experiment: Ant repellency on half-treated formica (Example 4); format: in vivo; settings: ants, 20 mg/m^2 on formica
Procedure: The effectiveness of compound 2 (example 1) as an insect repellent was determined using ants exposed to a formica surface partially treated/partially untreated with compound 2, and was directly compared to the repellency of the well known insect repellents Farnesol and Dihydrofarnesal.
The study was conducted in an air conditioned laboratory at a temperature of 22°±2° C. under a normal day/night cycle, using Black Ants (Ochetellus sp) of mixed sex and age. The study ws conducted over a 3 day period and the repellent effectiveness assessed 1, 2 and 3 days after ant introduction.
One half of a rectangle of formica 40 cm×30 cm was treated at 20 mg/m^2 with the test compounds. This was achieved by soaking a paper wipe (Rag On A Roll approximately 20 cm×20 cm) in a solution of the test compound in ethanol, squeezing out the excess liquid and wiping over the surface to give the required coverage. This was checked by weighing the cloth after application. The surface was allowed to dry. The other half was wiped with ethanol alone (untreated surface).
The treated formica rectangle was placed on the bench and a glass ring (diameter 20 cm) was placed on the rectangle. This had been treated with fluon to prevent ant escape.
A small plastic container 2 cm in diameter was placed on the formica, one on the treated surface and one on the untreated surface. The plastic container placed on the treated surface had repellent applied in the same way as the treated formica. The plastic container on the untreated surface was wiped with ethanol.
24 hours after treatment (1 day) 20 ants were added to the centre of the formica. No food and water was supplied for these ants. 2 hours after this the number of ants on the treated and untreated surfaces was counted.
The above was repeated 3 times to provide a total of 4 replicates.
The above was repeated at 2 days and 3 days. New ants were used at each time period.

## CC(C)=CCCC(C)CCO (centres unmarked) [Citronellol]
[1]
  Moths Present, Treated Section, Total (%): (23.9%)
  Moths Present, Untreated Section, Total (%): (76.1%)
  The Number of Moths Present, Treated Section: 7 and 0 and 5 and 14
  The Number of Moths Present, Untreated Section: 20 and 12 and 26 and 25
  The Number of Moths Present, Treated Section, Total: 26
  The Number of Moths Present, Untreated Section, Total: 83

## CC(C)=CCCC(C)=CCCC(C)=CCO [Farnesol, 3,7,11-Trimethyl-2,6,10-dodecatrien-1-ol]
[1]
  Moths Present, Treated Section, Total (%): (26.0%)
  Moths Present, Untreated Section, Total (%): (74.0%)
  The Number of Moths Present, Treated Section: 9 (2×) and 4 and 5
  The Number of Moths Present, Untreated Section: 18 and 19 (2×) and 21
  The Number of Moths Present, Treated Section, Total: 27
  The Number of Moths Present, Untreated Section, Total: 77
[2]; 1 day after treatment
  Percentage Dead: 0%
  Percentage Present, Treated Section: 20.0%
  Percentage Present, Untreated Section: 80.0%
[2]; 2 days after treatment
  Percentage Dead: 0%
  Percentage Present, Treated Section: 10.0%
  Percentage Present, Untreated Section: 90.0%
[2]; 3 days after treatment
  Percentage Dead: 0%
  Percentage Present, Treated Section: 20.0%
  Percentage Present, Untreated Section: 80.0%
[2]; average of days 1, 2 and 3
  Percentage Dead, Average: 0%
  Percentage Present, Untreated Section, Average: 83.3%
